From patent US20060110789A1, “Methods to mediate polyketide synthase module effectiveness” (priority 2002, published 2006)

Experiments:
module 2+TE ((5)M2+TE) = molecular target: T1, module 2+TE ((5)M2+TE) (Saccharopolyspora erythraea, UniProt Q03131+Q03133); conditions: NAC thioester substrate, shown earlier; cited from earlier work
T1 construct: The protein was, in each case, a single module of the DEBS PKS fused to the thioesterase (TE) termination region of module 6; first 39 amino acids of module 5 (N-ERL); made in house; host or cells: E. coli (BL21(DE3) with sfp)

module 6+TE ((5)M6+TE) = molecular target: T2, module 6+TE ((5)M6+TE) (Saccharopolyspora erythraea, UniProt Q03133, DEL53-1503); conditions: NAC thioester substrate, shown earlier; cited from earlier work
T2 construct: The protein was, in each case, a single module of the DEBS PKS fused to the thioesterase (TE) termination region of module 6; first 39 amino acids of module 5 (N-ERL); made in house; host or cells: E. coli (BL21(DE3) with sfp)

(5)M3+TE and (3)M3+TE = conditions: either module 3+TE derivative, previously shown; cited from earlier work
module 5+TE ((5)M5+TE) = conditions: NAC thioester substrate at saturating concentration, shown earlier; cited from earlier work
[1] = test system: (5)M2+TE, (5)M5+TE, and (5)M6+TE; conditions: Wu et al. 2000; cited from earlier work
[2] = test system: DEBS module 3 ((3)M3+TE or (5)M3+TE); test: Substrate transfer and elongation assay, acceptor DEBS module 3; format: biochemical; conditions: 20 μM substrate; FIG. 27 A: diketide-ACP2(2)+(3)M3+TE; B: diketide-ACP2(4)+(3)M3+TE; C: diketide-ACP4(4)+(5)M3+TE; D: diketide-ACP4(4)+(3)M3+TE
Experimental: (§1) Substrate transfer and elongation assays. Qualitative assays were performed with a diketide-ACP or diketide-PCP substrate either taken directly from the so phosphopantetheinlyation reaction or after further purification of the substrate. These assays were performed with 20 μM diketide-ACP/PCP substrate for 2 hours in the following reaction conditions: 1 μM acceptor module, 0.5 mM ^14C-methylmalonyl CoA, 4 mM NADPH in buffer C, 30° C. After quenching by addition of 250 μL EtOAc and vortexing, the products were extracted with 2×250 μL EtOAc, resolved on a silica gel TLC plate, and visualized on a Packard InstantImager.
The kinetics of substrate transfer at the module 2-module 3 interface followed by elongation and product release were examined as a function of the k60 μM and kcat/KM values of the overall reaction. […] In many cases, the k60μm values approximate the maximal overall turnover rates, as determined by back calculating the KM value for the reactions. True saturation kinetics were not practical because of the technical limitations (e.g., solubility) and limited supply associated with high molecular weight substrates such as diketide-ACP and diketide-PCP. kcat/KM values were determined by competitive assay of the substrate of interest against a substrate with a known kcat/KM value, as previously described (Wu, et al., (2001) J. Am. Chem. Soc. 123, 6465-6474). […]

(5)M6+TE = molecular target: T3, (5)M6+TE (Saccharopolyspora erythraea, UniProt Q03133, DEL53-1503); test: Substrate transfer and elongation assay, acceptor DEBS module 6; format: biochemical
T3 construct: The protein was, in each case, a single module of the DEBS PKS fused to the thioesterase (TE) termination region of module 6; first 39 amino acids of module 5 (N-ERL); made in house; host or cells: E. coli (BL21(DE3) with sfp)
Experimental: as §1
(§2) The kinetics of substrate transfer at the module 2-module 3 interface followed by elongation and product release were examined as a function of the k60 μM and kcat/KM values of the overall reaction. The k60 μm values reported here represent the apparent overall rate of product formation at an initial substrate concentration of 60 μM. In many cases, the k60μm values approximate the maximal overall turnover rates, as determined by back calculating the KM value for the reactions. True saturation kinetics were not practical because of the technical limitations (e.g., solubility) and limited supply associated with high molecular weight substrates such as diketide-ACP and diketide-PCP. kcat/KM values were determined by competitive assay of the substrate of interest against a substrate with a known kcat/KM value, as previously described (Wu, et al., (2001) J. Am. Chem. Soc. 123, 6465-6474). […]
(§3) These reactions were quenched by the addition of 80 μL 12.5% SDS to 2 μL reaction mixture and immediate vortexing. […] After removing the organic solvents in vacuo, the residual products were then spotted onto a TLC plate (Baker-flex 250 uM silica gel), resolved in 60% EtOAc/40% hexanes, and the radioactive spots were visualized and quantified on a Packard InstantImager. […]

(5)M2+TE = molecular target: T4, (5)M2+TE (Saccharopolyspora erythraea, UniProt Q03131+Q03133); test: Substrate transfer and elongation assay, acceptor DEBS module 2; format: biochemical
T4 construct: The protein was, in each case, a single module of the DEBS PKS fused to the thioesterase (TE) termination region of module 6; first 39 amino acids of module 5 (N-ERL); made in house; host or cells: E. coli (BL21(DE3) with sfp)
Experimental: as §1, §2, §3

[3] = test system: DEBS module 5 ((5)M5+TE or (3)M5+TE); test: Substrate transfer and elongation assay, acceptor DEBS module 5; format: biochemical
Experimental: as §1, §2, §3

[4] = versus diketide-ACP4(4), stated jointly for modules 2 and 6

CCC(O)C(C)C(=O)SCCNC(C)=O (stereo not drawn) [2a]
kcat (module 2+TE ((5)M2+TE)): 0.0767 s⁻¹ | kcat (module 6+TE ((5)M6+TE)): 0.283 s⁻¹ | qualitative incorporation of NAC thioesters ((5)M3+TE and (3)M3+TE): readily incorporated and elongated | kcat (elongation rate constant) (module 5+TE ((5)M5+TE)): 0.00417 s⁻¹ | qualitative turnover of NAC thioesters [1]: substrates for the three modules

diketide-ACP4(Ø): diketide on isolated ACP4 domain without linker region
qualitative transfer of diketide to module 3 (triketide lactone formation) [2]: not able to efficiently transfer substrates | qualitative transfer of diketide to (5)M6+TE ((5)M6+TE; 20 μM substrate, 2 hours): observed | drop of k60 μM when linker interactions are eliminated ((5)M6+TE; [4]): approximately 10 fold | drop of kcat/KM when linker interactions are eliminated ((5)M6+TE; [4]): 70-300 fold | qualitative transfer of diketide to (5)M2+TE ((5)M2+TE; 20 μM substrate, 2 hours): observed | drop of k60 μM when linker interactions are eliminated ((5)M2+TE; [4]): approximately 10 fold | drop of kcat/KM when linker interactions are eliminated ((5)M2+TE; [4]): 70-300 fold | qualitative transfer of diketide to module 5 (triketide lactone formation) ([3]; 20 μM substrate, FIG. 28 A: diketide-ACP4(4)+(5)M5+TE, B: diketide-ACP4(4)+(3)M5+TE, C: diketide-ACP2(4)+(5)M5+TE, D: diketide-ACP2(2)+(5)M5+TE): Formation of the expected triketide lactone was observed | k60μm ([3]; acceptor (3)M5+TE, FIG. 29 B): 0.27 min⁻¹ | k60μm ([3]; acceptor (5)M5+TE, FIG. 29 A): 0.49 min⁻¹
